# Experimental data reported in patent publication US10962529B1 (priority 2020, dated 2021).
# “Also recorded” adds a separate entry of the source.
# Legend:
# Type in all cases: biochemical
# [1] = system: SARS-COV-2 total protease; assay: High throughput FRET screening of fluorogenic dipeptide substrates; settings: for Relative fluorescence (change in the fluorescence signal in the presence of SARS-COV-2 protease): relative to FITC-Ahx-H-d-K(Dabcyl) = 100, ex 485 nm, em 535 nm; for Relative fluorescence (change in the fluorescence signal in the presence of SARS-COV-2 protease) / Fluorescence intensity increase relative to H-d peptide: 37° C.; for Fluorescence intensity increase relative to H-d peptide: H-d set as relative scale of 100%
# [2] = system: MERS-COV protease (viral particles)
# [3] = system: SARS-COV-2 live virus (protease); assay: Real-time fluorescence kinetics and detection limit of FRET substrate with live virus
Substance,Relative fluorescence (change in the fluorescence signal in the presence of SARS-COV-2 protease) [1],further results
FITC-Ahx-K-K-K(Dabcyl),62,
FITC-Ahx-E-d-K(Dabcyl),58,
FITC-Ahx-H-d-K(Dabcyl),100,Increase in the fluorescence intensity in the presence of MERS-COV virus [2]: less than 20%; Fluorescence intensity increase relative to H-d peptide [1]: 100%; Change in the fluorescence signal of the substrate [3]: no significant change; Fraction of the reaction completed within 30 minutes [3]: more than 50%; Time after which the fluorescence curve plateaus [3]: 1.5 h
FITC-Ahx-R-h-K(Dabcyl) [reference compound],,"Increase in the fluorescence intensity in the presence of SARS-COV-2 protease ([1]; incubated at 37° C., after 3 hours): insignificant increase; also recorded: very minimum fluorescence change"
FITC-Ahx-K-d-K(Dabcyl),47,
FITC-Ahx-R-d-K(Dabcyl),67,
FITC-Ahx-P-P-K(Dabcyl),55,
FITC-Ahx-F-R-K(Dabcyl),82,Fluorescence intensity increase relative to H-d peptide [1]: 82%
